Test system: Adult human dermal fibroblasts
Experiment: Collagen type I in human dermal fibroblast conditioned media
Format: cell-based
Settings: MAP 100 ug/ml; Vit. C 10 ug/ml; FIG. 1
Description: Adult human dermal fibroblasts (facial cells, from Cell Applications, Inc. San Diego, Calif., Catalog #106-05A, Lot 1339) were incubated for seventy-two hours in Fibroblast Growth Serum (Cell Applications, cat. #116-500). Four test formulations, each formulation used at three final test sample dilutions of 2.5%, 0.5% and 0.05%, were added to the incubated cells. All concentrations expressed in weight/weight unless otherwise noted: • (i) Test Formulation #1, CHL-01-057 (labeled “1”) served as a control and contained 90% purified water and 10% butylene glycol; • (ii) Test Formulation #2, CHL-01-053 (labeled “2”) containing 0.2% of 1-Disodium Copper Chlorin E4 in 10% butylene glycol and 89.8% purified water; • (iii) Test Formulation #3, (labeled #3) CHL-01-0 51 containing 0.2% Sodium Copper Chlorophyllin complex, USP in 10% butylene glycol and 89.8% purified water; • (iv) Test Formulation #4, CHL-01-055 (labeled “4”) containing 0.2% Sodium Zinc Chlorophyllin in 10% butylene glycol and 89.8% purified water. Based on the final dilutions, the amount of chlorin, chlorophyllin, or control compound added to the cell culture was 50 ppm, 10 ppm, and 1 ppm (ppm=parts per million by weight). Each of the above formulations was prepared by adding butylene glycol to water and mixing on a heating plate with a magnetic stirrer until the glycol fully dissolved. […]

## O=C1O[C@H]([C@@H](O)CO)C([O-])=C1OP(=O)([O-])[O-].O=C1O[C@H]([C@@H](O)CO)C([O-])=C1OP(=O)([O-])[O-].[Mg+2].[Mg+2].[Mg+2] [Magnesium Ascorbyl Phosphate, magnesium ascorbyl phosphate]
  stimulatory activity on type 1 collagen production (positive controls): strong stimulatory activity

## O=C1O[C@H]([C@@H](O)CO)C(O)=C1O [vitamin C, ascorbic acid]
  stimulatory activity on type 1 collagen production (positive controls): strong stimulatory activity

Reference: patent publication US20120283235A1, “Dermatologic and Cosmetic Compositions” (DISCOVERY PARTNERS LLC, priority 2009, published 2012)
